Holding throughout (assay): inhibition of tumour cell growth, NCI panel, 48 h
The test system of assay [1] is UACC-257 melanoma.
The subject of assay [2] is SR leukemia.
Assay [3] concerns TK-10 renal.
For assay [4], the system named is SNB-75 CNS.
In assay [5] the test system is HCC-2998 colon.
Assay [6] concerns A498 renal.
Assay [7] deals with SNB-19 CNS.
The subject of assay [8] is HL-60(TB) leukemia.
For assay [9], the system named is SK-MEL-5 melanoma.
Assay [10] concerns RXF 393 renal.

Values joined by “and” are separate entries in the source; they are usually repeats but may differ in a detail not shown here. Equal entries are not always repeated.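 48-hour exposure; five concentrations; linearly interpolated endpoints. Abbreviation: GI50, concentration required for 50% inhibition of growth. TGI marks complete inhibition of growth.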

`Cc1ccc(Cl)cc1Nc1nc(C(F)(F)F)ccc1C(=O)N1CCN(c2ccc(F)cc2)CC1`: the GI50 in assay [1] is 19.7 µM; in assay [2] it was 17.6 µM; in assay [3] it was 11.2 µM; in [5], 12.7 µM; in assay [6], 6.03 µM; in assay [7] it was 14.9 µM. The GI50 is 12.7 µM in assay [8], 12 µM in [9] and 11.2 µM in assay [10]. The TGI in assay [1] was 46.5 µM; in assay [2], 80.6 µM; in assay [3] it was 26.4 µM; in [4], 14.2 µM; in assay [5], 26 µM; in assay [6] it was 20.2 µM. Also, the TGI in assay [7] stood at 30.5 µM; in [8], 37.8 µM; in assay [9], 24.3 µM; in assay [10], 29.9 µM.

`COc1ccc(C(=O)c2cc(OC)c(C)c(OC)c2)cc1OC(=O)CCl`: the GI50 is 14 µM in assay [1]; 0.0305 µM in assay [2]; 17.2 µM in [3]; 0.154 µM in [4]; 0.633 µM in [5]; 2.09 µM in assay [6]. For the same compound, the GI50 is 0.388 µM in [7], 0.066 µM in assay [8], 0.463 µM in assay [9] and 0.33 µM in assay [10]. Moreover, the TGI in assay [1] was more than 95.8 µM; in assay [2], 13.2 µM; in assay [3], more than 100 µM; in assay [4], more than 100 µM; in [5] it was 19.3 µM; in assay [6], 7.39 µM. Moreover, the TGI in assay [7] is more than 100 µM; in [8], 0.193 µM; in assay [9] it was 3.4 µM; in [10] it was 32.5 µM.

Turning to `COc1ncnc(C2CC2)c1-c1ncc2cnn(Cc3ccc(-c4nc(C(F)(F)F)cn4C(C)C)cc3)c2n1`, the GI50 in assay [1] is 18.4 µM; in assay [2] it was 19.7 µM; in assay [3], 29 µM; in assay [4], 5.36 µM; in assay [5], 23.3 µM; in assay [6] it was 24.5 µM. Moreover, the GI50 in assay [7] is 22 µM; in assay [8], 31 µM; in assay [9], 12.6 µM; in [10], 6.5 µM. Further, the TGI in assay [1] was 58.8 µM; in assay [2], more than 100 µM; in [3], more than 100 µM; in assay [4] it was 53.6 µM; in [5], more than 100 µM; in assay [6] it was more than 100 µM. Further, the TGI was 69.5 µM in assay [7], more than 100 µM in assay [8], 25.2 µM in assay [9] and 39.8 µM in assay [10].

`Oc1ccc(Cl)cc1Cc1cc(Cl)cc(Cl)c1O`: the GI50 is 5.01 µM in assay [1]; 5.02 µM in [2]; 7.88 µM in assay [3]; 5.14 µM in assay [4]; 6.52 µM in assay [5]; 8.73 µM in assay [6]. The GI50 in assay [7] was 3.83 µM; in assay [8], 4.64 µM; in [9], 1.85 µM; in assay [10], 2.54 µM. The TGI in assay [1] is 32.5 µM; in assay [2] it was 27.4 µM; in assay [3], 44.1 µM; in assay [4], 40.8 µM; in assay [5], 18.9 µM; in [6], 29.2 µM. Further, the TGI in assay [7] is 28.9 µM; in assay [8], 28.6 µM; in assay [9] it was 4.89 µM; in assay [10] it was 8.54 µM.

Regarding `CCCCOC(=O)C1C(c2ccc(Cl)cc2)NC(c2ccc(Cl)cc2)C(C(=O)OCCCC)S1(=O)=O` (centres undefined), the TGI in [1], in assay [2], in assay [3], in [4], in assay [5] and in [6] was more than 100 µM each time. Further, the TGI in assay [7], in assay [8], in assay [9] and in assay [10] was more than 100 µM throughout.

As for `O=c1nc2occc2cn1C1CC(O)C(CO)O1` (centres undefined), the TGI in assay [1], in assay [2], in assay [3], in [4], in assay [5] and in assay [6] was more than 100 µM in each case. Further, the TGI in assay [7], in [8], in assay [9] and in [10] was more than 100 µM throughout.

Take `C/C(=C\CCc1ccoc1)CC/C=C(\C)CCCC1=CC(=O)OC1`: the GI50 in assay [1] is 2.81 µM; in assay [2], 3.45 µM; in assay [3], 16.9 µM; in assay [4] it was 4.46 µM; in [5], 8.4 µM; in assay [6] it was 1.29 µM. The GI50 was 17.7 µM in assay [7], 6.3 µM in assay [8], 2.55 µM in assay [9] and 3.17 µM in [10]. Besides, the TGI in [1] came out at 11.3 µM; in assay [2], 17.1 µM; in assay [3], 63.9 µM; in [4], 52 µM; in assay [5] it was 29.1 µM; in assay [6] it was 16.5 µM. Moreover, the TGI in assay [7] is more than 100 µM; in assay [8] it was 32.7 µM; in assay [9], 6.66 µM; in [10], 15.7 µM.

For `COc1ccc2c(c1)C(C)Cc1c(Cl)ncnc1N2C` (centres undefined), the GI50 in [1] was 0.471 µM; in assay [2], 0.45 µM; in assay [3], 1.06 µM; in assay [4], 0.557 µM; in [5], 0.402 µM; in assay [6], 0.23 µM. The GI50 in assay [7] was 0.732 µM; in assay [8], 2 µM; in [9], 0.188 µM; in [10], 0.42 µM. Besides, the TGI in assay [1] is 23.3 µM; in assay [2], more than 19.8 µM; in assay [3] it was 18.8 µM; in assay [4], more than 54.6 µM; in assay [5], 14.3 µM; in assay [6], 0.744 µM. Also, the TGI in assay [7] was more than 100 µM; in [8] it was 7.06 µM; in assay [9], 0.353 µM; in assay [10] it was 3.83 µM.

Consider `CC(=O)O.CC(=O)O.CC(=O)O.CC(=O)O.CC(=O)O.CC(=O)O.O.[Ti].[Ti]`, for which the GI50 is more than 100 µM in assay [1]; more than 100 µM in assay [2]; more than 100 µM in assay [3]; 56 µM in assay [4]; more than 100 µM in assay [5]; more than 100 µM in [6]. Moreover, the GI50 in assay [7] is 65.6 µM; in [8], more than 100 µM; in assay [9] it was more than 100 µM; in assay [10] it was more than 100 µM. For the same compound, the TGI in assay [1], in [2], in [3], in [4], in [5] and in [6] was more than 100 µM each time. In addition, the TGI in [7], in assay [8], in assay [9] and in assay [10] was more than 100 µM in each case.

With `Cn1c(=O)c2c(nc(Nc3cc(=O)[nH]c(=O)[nH]3)n2Cc2ccccc2)n(C)c1=O`, the GI50 was more than 100 µM in assay [1]; more than 100 µM in [2]; more than 100 µM in assay [3]; 12.5 µM in assay [4]; more than 100 µM in assay [5]; 7.97 µM in [6]. For the same compound, the GI50 was more than 100 µM in [7], more than 100 µM in assay [8], 48 µM in assay [9] and more than 100 µM in assay [10]. The TGI in assay [1], in [2], in [3], in assay [4], in [5] and in [6] was more than 100 µM in each case. For the same compound, the TGI in assay [7], in assay [8], in [9] and in assay [10] was more than 100 µM each time.

As for `C=C(C=O)[C@@H]1C2OC(=O)C(=C)[C@@H]2CC(O)[C@@]1(C)CC` (some centres undefined), the TGI in assay [1] is 26.9 µM; in [2], 12.3 µM; in assay [3] it was 29.9 µM; in assay [4] it was more than 100 µM; in [5], 31.1 µM; in assay [6] it was 39.5 µM. Further, the TGI in assay [7] was more than 89.7 µM; in assay [8] it was 5.92 µM; in assay [9], 19.8 µM; in [10], 10.3 µM.

Regarding `C=C(C=O)C1CCC2(C(=O)O)CCC3(C)C(CCC4C5(C)CCC(O)C(C)(C)C5CCC43C)C12` (centres undefined), the GI50 in assay [1] is 2.05 µM; in assay [2], 2.23 µM; in [3] it was 4.04 µM; in [4] it was 10.8 µM; in assay [5], 1.93 µM; in assay [6], 4.77 µM. Also, the GI50 in assay [7] was 8.18 µM; in [8], 4.1 µM; in [9] it was 1.52 µM; in assay [10], 1.34 µM. For the same compound, the TGI in assay [1] was 5.48 µM; in assay [2], more than 100 µM; in [3] it was 18.1 µM; in assay [4], 32.6 µM; in [5], 3.36 µM; in assay [6], 14.4 µM. The TGI in assay [7] was 20.8 µM; in [8] it was more than 100 µM; in [9], 2.84 µM; in assay [10] it was 2.99 µM.

Turning to `CC[C@]12C=CCN3CC[C@@]4(c5ccc(OC)cc5N(C)[C@H]4[C@@](O)(C(=O)OC)[C@@H]1OC(=O)CCC[P+](c1ccccc1)(c1ccccc1)c1ccccc1)[C@@H]32`, the GI50 was 0.364 µM and 0.275 µM in assay [1]; 0.379 µM and 0.438 µM in [2]; 1.59 µM and 1.28 µM in assay [3]; 0.554 µM and 0.218 µM in [4]; 0.449 µM and 0.425 µM in assay [5]; 1.71 µM and 1.97 µM in assay [6]. The GI50 in assay [7] was 0.296 µM and 0.382 µM; in assay [8] it was 0.203 µM and 0.195 µM; in [9], 0.817 µM and 1.65 µM; in [10], 0.736 µM and 1.53 µM. In addition, the TGI in assay [1] was 1.82 µM and 0.94 µM; in [2], 7.07 µM and 1.97 µM; in [3], 6.46 µM and 3.3 µM; in [4], 3.58 µM and 1.23 µM; in assay [5], 2.67 µM and 1.64 µM; in [6], 4.87 µM and 5.7 µM. Besides, the TGI is 6.04 µM and 1.66 µM in assay [7]; 0.76 µM and 0.518 µM in assay [8]; 1.53 µM and 3.02 µM in assay [9]; 2.94 µM and 4.34 µM in [10].

With `CC/C(=C(/c1ccc(OCCN(C)C)cc1)c1ccc(OC(=O)CCCCC(=O)c2c(C)[nH]c(/C=C3\N=C(c4ccc[nH]4)C=C3OC)c2C)cc1)c1ccccc1`, the GI50 was 12 µM in assay [1]; 3.05 µM in assay [2]; 12.8 µM in assay [3]; 8.17 µM in assay [4]; 13.2 µM in assay [5]; 12.8 µM in assay [6]. In addition, the GI50 is 12.8 µM in assay [7], 18 µM in [8], 1.61 µM in [9] and 3.86 µM in [10]. Moreover, the TGI amounted to 28.9 µM in assay [1]; 21 µM in [2]; 25.4 µM in [3]; 23.2 µM in assay [4]; 26.7 µM in assay [5]; 26.1 µM in [6]. In addition, the TGI amounted to 27.4 µM in [7], 41.9 µM in assay [8], 3.11 µM in assay [9] and 17.7 µM in assay [10].

Consider `CSc1nc2c(nc(C)c(=O)n2C2OCC(OC(C)=O)C(OC(C)=O)C2OC(C)=O)c(=O)[nH]1` (centres undefined), for which the TGI in assay [1], in assay [2], in [3], in assay [4], in assay [5] and in [6] was more than 100 µM in each case. The TGI in assay [7], in assay [8], in assay [9] and in assay [10] was more than 100 µM in each case.

As to `COc1cc(Nc2cn[nH]c2-c2ccc(Cl)cc2)cc(OC)c1OC`, the GI50 was 15.7 µM in [1]; 2.23 µM in assay [2]; 9.13 µM in assay [3]; 1.14 µM in [4]; 5.46 µM in assay [5]; 4.58 µM in assay [6]. For the same compound, the GI50 in assay [7] is 6.96 µM; in [8] it was 2.6 µM; in [9] it was 3.58 µM; in [10], 10.4 µM. Moreover, the TGI in assay [1] is more than 83.6 µM; in [2], 42.2 µM; in [3], 62.9 µM; in assay [4], 7.66 µM; in assay [5], 23.4 µM; in assay [6], 23.8 µM. In addition, the TGI in assay [7] is more than 69.3 µM; in assay [8], 28.6 µM; in assay [9], 14.6 µM; in [10], more than 64.1 µM.

(Values after PubChem BioAssay (NCI).)
